What was measured:
SD masculine rats = test: Subacute toxicity, oral, three months; type: in vivo
Procedure: With (a) the 3-oxygermylpropionic acid according to this invention (hereinafter called SK-818) and (b) the composition of Preparation Ex. 1, SD rats and mice were subjected to acute and subacute (chronic) toxicity tests in conventional manner. (Groups of animals, 8-10 per group, were used for experimentation).
(a) SK-818 and (b) the composition of Preparation Ex. 1 were administered orally to SD masculine rats at doses of 256, 380, 640, 1300, 1600 and 4000 mg/kg/day over three months to determine the doses at which there was no toxic influence on the animals and the animals were absolutely poisoned, respectively.

Type B chronic hepatitis = test: Clinical test for Type B chronic hepatitis against placebo; type: in vivo, patients
Procedure: The efficacy of SK-818 against Type B chronic hepatitis was examined, using a placebo as control.
The subjects were patients who had been diagnosed by biopsy as chronic hepatitis before at most one year in principle, were positive to HBe antigens and had Type B chronic hepatitis in need of treatment.
• (i) The drug under test was a capsule containing 10 mg of SK-818. • (ii) The control consisted only of lactose (a placebo).
The subjects followed the standard prescription of three capsules a day and one capsule each meal over 16 weeks in principle.
The general examination of the functioning of the livers and blood and the measurement of HBe antigens and antibodies were all carried out by the Virus Hepatitis Research Foundation.

MRL/1 masculine mice = test: Prevention of spontaneous nephritis of MRL/1 mice; type: in vivo; set-up: Blood-urinary nitrogen levels, BUN: unit not given here; settings: for Blood-urinary nitrogen levels, BUN: day following the final administration
Procedure: The action of SK-818 on preventing the development of spontaneous nephritis of MRL/1 mice (or an impairment of the functioning of the kidney asaociated with aging) was examined.
Given amounts (0.1 mg/kg, 1.0 mg/kg and 10.0 mg/kg a day) of SK-818, in the form of a mixture of the composition of Preparation Ex. 1 with feed, were administered orally MRL/1 masculine mice of six-week age (16 for each group) twice a week over 12 weeks. In the meantime, urinary protein was measured once a week; urinary protein levels exceeding 100 mg/dl were taken as positive. Examination was then made of how many animals became positive at the respective week-ages. Moreover, blood-urinary nitrogen levels were determined on the day following the final administration to make serological/physiological and pathological estimations of the action of SK-818 on nephritis.
The urinary protein and blood-urinary nitrogen levels were measured with Protein Pre-test (made by Wako Junyaku K.K.) and Urinary Nitrogen B-Test according to the urease/indophenol method (made by Wako Junyaku K.K.), respectively.

[1] = orally, daily over three months
[2] = SK-818 against Placebo, time points with significance
[3] = determined by physicians, Total 95

3-oxygermylpropionic acid [SK-818]
mortality (SD masculine rats; At 4000 mg/kg, orally over three months): some animals died
dose at which the animals were absolutely poisoned (SD masculine rats; [1]): 1600 mg/kg
dose which had no toxic influence on the animals (SD masculine rats; [1]): 256 mg/kg
GOT (Type B chronic hepatitis; 4W): ↓ *
GPT (Type B chronic hepatitis; 4W): ↓ *
HBe antibodies (RIA%) (Type B chronic hepatitis; 4W): ↑ *
HBe antigens (EIA) log (Type B chronic hepatitis; 4W): ↓***
LDH (mu/ml) (Type B chronic hepatitis; 4W): ↓ +
Total Bilirubin (mg/dl) (Type B chronic hepatitis; 4W): ↓ *
AIP (KA) (Type B chronic hepatitis; 8W): ↓ +
Cholinesterase (ΔPH) (Type B chronic hepatitis; 8W): ↑ *
GOT (Type B chronic hepatitis; 8W): ↓ +
GPT (Type B chronic hepatitis; 8W): ↓**
HBe antibodies (RIA%) (Type B chronic hepatitis; 8W): ↑ *
HBe antigens (EIA) log (Type B chronic hepatitis; 8W): ↓ **
LDH (mu/ml) (Type B chronic hepatitis; 8W): ↓ +
Total Cholesterol (mg/dl) (Type B chronic hepatitis; 8W): ↑ *
AIP (KA) (Type B chronic hepatitis; 12W): ↓ +
Cholinesterase (ΔPH) (Type B chronic hepatitis; 12W): ↑ *
GOT (Type B chronic hepatitis; 12W): ↓***
GPT (Type B chronic hepatitis; 12W): ↓***
HBe antibodies (RIA%) (Type B chronic hepatitis; 12W): ↑ **
HBe antigens (EIA) log (Type B chronic hepatitis; 12W): ↓***
LDH (mu/ml) (Type B chronic hepatitis; 12W): ↓ *
Serum Albumin (g/dl) (Type B chronic hepatitis; 12W): ↑ *
TTT (Type B chronic hepatitis; 12W): ↓**
Total Cholesterol (mg/dl) (Type B chronic hepatitis; 12W): ↑ *
ZTT (Type B chronic hepatitis; 12W): ↓**
γ-GTP (mu/ml) (Type B chronic hepatitis; 12W): ↓**
γ-Globulin (g/dl) (Type B chronic hepatitis; 12W): ↓**
GOT (Type B chronic hepatitis; 16W): ↓***
GPT (Type B chronic hepatitis; 16W): ↓***
HBe antibodies (RIA%) (Type B chronic hepatitis; 16W): ↑ *
HBe antigens (EIA) log (Type B chronic hepatitis; 16W): ↓***
Serum Albumin (g/dl) (Type B chronic hepatitis; 16W): ↑ +
TTT (Type B chronic hepatitis; 16W): ↓***
Total Cholesterol (mg/dl) (Type B chronic hepatitis; 16W): ↑ *
ZTT (Type B chronic hepatitis; 16W): ↓**
γ-GTP (mu/ml) (Type B chronic hepatitis; 16W): ↓ **
γ-Globulin (g/dl) (Type B chronic hepatitis; 16W): ↓***
Cholinesterase (ΔPH) (Type B chronic hepatitis; Af4W (after 4 weeks)): ↑ *
GOT (Type B chronic hepatitis; Af4W (after 4 weeks)): ↓ **
GPT (Type B chronic hepatitis; Af4W (after 4 weeks)): ↓ **
HBe antibodies (RIA%) (Type B chronic hepatitis; Af4W (after 4 weeks)): ↑ *
HBe antigens (EIA) log (Type B chronic hepatitis; Af4W (after 4 weeks)): ↓***
TTT (Type B chronic hepatitis; Af4W (after 4 weeks)): ↓***
ZTT (Type B chronic hepatitis; Af4W (after 4 weeks)): ↓**
γ-GTP (mu/ml) (Type B chronic hepatitis; Af4W (after 4 weeks)): ↓ **
γ-Globulin (g/dl) (Type B chronic hepatitis; Af4W (after 4 weeks)): ↓***
Cholinesterase (ΔPH) (Type B chronic hepatitis; Af8W (after 8 weeks)): ↑**
GOT (Type B chronic hepatitis; Af8W (after 8 weeks)): ↓ **
GPT (Type B chronic hepatitis; Af8W (after 8 weeks)): ↓ **
HBe antibodies (RIA%) (Type B chronic hepatitis; Af8W (after 8 weeks)): ↑ **
HBe antigens (EIA) log (Type B chronic hepatitis; Af8W (after 8 weeks)): ↓***
TTT (Type B chronic hepatitis; Af8W (after 8 weeks)): ↓ *
Total Cholesterol (mg/dl) (Type B chronic hepatitis; Af8W (after 8 weeks)): ↑*
ZTT (Type B chronic hepatitis; Af8W (after 8 weeks)): ↓ *
γ-GTP (mu/ml) (Type B chronic hepatitis; Af8W (after 8 weeks)): ↓ *
γ-Globulin (g/dl) (Type B chronic hepatitis; Af8W (after 8 weeks)): ↓ *
Cholinesterase (ΔPH), Differences between groups (Type B chronic hepatitis; [2]): 4w* 12W** Af4W* 8w** 16w* Af8w+
GPT, Differences between groups (Type B chronic hepatitis; [2]): 8w* 12w** 16W* Af4w*
HBe antibodies (RIA%), Differences between groups (Type B chronic hepatitis; [2]): 4W* 12W* 16W* Af8w+
HBe antigens (EIA) log, Differences between groups (Type B chronic hepatitis; [2]): 4W** 12W* 16W* Af4w*
TTT, Differences between groups (Type B chronic hepatitis; [2]): Af4w+
Total Cholesterol (mg/dl), Differences between groups (Type B chronic hepatitis; [2]): 8W* 16W** 12W** Af8w*
γ-Globulin (g/dl), Differences between groups (Type B chronic hepatitis; [2]): 12W+ Af4w* 16w+ Af8w+
Rate of Amelioration, Slightly ameliorated or more (Type B chronic hepatitis; determined by physicians, P=0.0011 against placebo): 57.9%
Rate of Amelioration, Ameliorated to some or higher extent (Type B chronic hepatitis; determined by physicians, P=0.0114 against placebo): 36.8
Degree of Amelioration: Ameliorated to some extent (number of cases) (Type B chronic hepatitis; [3]): 23
Degree of Amelioration: Less aggravated (number of cases) (Type B chronic hepatitis; [3]): 5
Degree of Amelioration: Nochange (number of cases) (Type B chronic hepatitis; [3]): 31
Degree of Amelioration: Slightly ameliorated (number of cases) (Type B chronic hepatitis; [3]): 20
Degree of Amelioration: aggravated (number of cases) (Type B chronic hepatitis; [3]): 4
Degree of Amelioration: seriously aggravated (number of cases) (Type B chronic hepatitis; [3]): 0
Degree of Amelioration: Remarkably ameliorated (number of cases) (Type B chronic hepatitis; determined by physicians, Total 95, 10 mg capsule three a day over 16 weeks): 12
Number of animals with positive urinary protein levels (MRL/1 masculine mice; 0.1 mg/kg, 16 week-age, positive = exceeding 100 mg/dl): 4/15
Number of animals with positive urinary protein levels (MRL/1 masculine mice; 0.1 mg/kg, 17 week-age): 7/15
Number of animals with positive urinary protein levels (MRL/1 masculine mice; 0.1 mg/kg, 18 week-age): 10/15
Blood-urinary nitrogen levels, BUN (MRL/1 masculine mice; 0.1 mg/kg): 32.2±1.6
Number of animals with positive urinary protein levels (MRL/1 masculine mice; 1 mg/kg, 16 week-age): 4/15
Number of animals with positive urinary protein levels (MRL/1 masculine mice; 1 mg/kg, 17 week-age): 6/15
Number of animals with positive urinary protein levels (MRL/1 masculine mice; 1 mg/kg, 18 week-age): 8/15
Blood-urinary nitrogen levels, BUN (MRL/1 masculine mice; 1 mg/kg): 35.5±3.3
Number of animals with positive urinary protein levels (MRL/1 masculine mice; 10 mg/kg, 16 week-age): 2/15
Number of animals with positive urinary protein levels (MRL/1 masculine mice; 10 mg/kg, 17 week-age): 4/15
Number of animals with positive urinary protein levels (MRL/1 masculine mice; 10 mg/kg, 18 week-age): 8/15
Blood-urinary nitrogen levels, BUN (MRL/1 masculine mice; 10 mg/kg): 29.3±1.7
increase in the blood-urinary nitrogen levels (MRL/1 masculine mice; At 10 mg/kg): significantly inhibited
increase in the urinary protein levels (MRL/1 masculine mice; At 10 mg/kg): remarkably inhibited
glomeruli that become more morbid (MRL/1 masculine mice; groups medicated with SK-818, control group 57 %): 23-34%
